Test results reported in patent US20160151337A1, “ANNELATED PYRROLES AND THEIR USE AS CRAC INHIBITORS” (Grünenthal GmbH, priority 2013, published 2016).

Experiments:
[1] = test system: Interleukin-2 (IL-2) production/release in Jurkat T cells; assay: Jurkat IL-2 Production Assay (PHA-stimulated, IL-2 AlphaLisa); format: cell-based; details: Homo sapiens, PHA 15 μg/ml, 22 h, inhibition of IL-2 production
In short: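 Jurkat E6-1 cells (5*10^5/well, DMEM/F12 with 10% FCS) pretreated 30 min with compound, then stimulated 22 h with 15 μg/ml PHA at 37 °C. IC50 from 8-point 1:3.16 dilution starting at 10 μM.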

CRAC channel = target: T1, CRAC channel (Homo sapiens, UniProt Q96D31); assay: HEK Calcium Influx Assay (FLIPR), inhibition of store-operated Ca2+ entry after thapsigargin store depletion; format: cell-based; details: 10 μM compound, HEK293 cells, read-out: % inhib. [@ 10 μM] FLIPR
T1 construct: endogenous in cells; host or cells: HEK293 (ECACC), untransfected
In short: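 HEK293 cells loaded with Calcium-4 dye in Ca2+-free HBS (pH 7.4), stores depleted with 2 μM thapsigargin for 10 min (100 μM EGTA); after 3 mM CaCl2 re-addition and 15 min steady-state, compounds added and FLIPR signal averaged 9.5–10 min post-dose. IC50 from 8-point 1:3.16 dilutions from 10 μM, normalised to DMSO and non-depleted wells.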

T1 sequence (Q96D31 whole entry): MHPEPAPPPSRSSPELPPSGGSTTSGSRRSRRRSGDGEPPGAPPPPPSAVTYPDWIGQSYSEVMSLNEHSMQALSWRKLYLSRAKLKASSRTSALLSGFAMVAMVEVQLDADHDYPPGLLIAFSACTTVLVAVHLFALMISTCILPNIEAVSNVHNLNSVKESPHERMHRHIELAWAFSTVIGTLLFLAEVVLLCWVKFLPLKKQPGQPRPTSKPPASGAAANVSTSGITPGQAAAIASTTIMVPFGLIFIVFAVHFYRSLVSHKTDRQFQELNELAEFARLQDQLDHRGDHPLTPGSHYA

SMILES	IC50 [1] [µM]	inhibition at 10 µM (CRAC channel) [%]
Cc1cc(S(C)(=O)=O)ncc1N1CCc2[nH]c(C3CCCCC3)cc2C1 [Example 72, 2-Cyclohexyl-5-(4-methyl-6-methylsulfonyl-pyridin-3-yl)-4,5,6,7-tetrahydro-1H-pyrrolo[3,2-c]pyridine]	< 0.5	> 70
Cc1cc(S(C)(=O)=O)ncc1N1CCc2[nH]c(-c3ccncc3F)cc2C1 [Example 90, 2-(3-Fluoro-pyridin-4-yl)-5-(4-methyl-6-methylsulfonyl-pyridin-3-yl)-4,5,6,7-tetrahydro-1H-pyrrolo[3,2-c]pyridine]	1 to 5	> 70
Cc1cc(S(=O)(=O)N(C)C)ccc1N1CCc2[nH]c(-c3c(F)cccc3F)cc2C1 [Example 14, 4-[2-(2,6-Difluoro-phenyl)-4,5,6,7-tetrahydro-1H-pyrrolo[3,2-c]pyridin-5-yl]-N,N,3-trimethyl-benzenesulfonic acid amide]	< 0.5	< 50
Cc1cc(C(F)(F)F)ncc1N1CCc2[nH]c(-c3cncc(F)c3C)cc2C1 [Example 141, 2-(5-Fluoro-4-methyl-pyridin-3-yl)-5-[4-methyl-6-(trifluoromethyl)-pyridin-3-yl]-4,5,6,7-tetrahydro-1H-pyrrolo[3,2-c]pyridine]	< 0.5	> 70
Cc1nc(Cl)ccc1N1CCc2[nH]c(-c3c(F)cccc3F)cc2C1 [Example 15, 5-(6-Chloro-2-methyl-pyridin-3-yl)-2-(2,6-difluoro-phenyl)-4,5,6,7-tetrahydro-1H-pyrrolo[3,2-c]pyridine]	1 to 5	> 70
Cc1cc(S(C)(=O)=O)ncc1N1CCc2[nH]c(-c3cncc(F)c3C)cc2C1 [Example 96, 2-(5-Fluoro-4-methyl-pyridin-3-yl)-5-(4-methyl-6-methylsulfonyl-pyridin-3-yl)-4,5,6,7-tetrahydro-1H-pyrrolo[3,2-c]pyridine]	0.5 to 1	> 70
Cc1nc(-c2cccnc2)sc1N1CCc2[nH]c(-c3c(F)cccc3F)cc2C1 [Example 18, 5-[2-(2,6-Difluoro-phenyl)-4,5,6,7-tetrahydro-1H-pyrrolo[3,2-c]pyridin-5-yl]-4-methyl-2-pyridin-3-yl-thiazole]	< 0.5	> 70
Cc1cc(S(C)(=O)=O)ncc1N1CCc2[nH]c(-c3ccncc3Cl)cc2C1 [Example 108, 2-(3-Chloro-pyridin-4-yl)-5-(4-methyl-6-methylsulfonyl-pyridin-3-yl)-4,5,6,7-tetrahydro-1H-pyrrolo[3,2-c]pyridine]	0.5 to 1	< 50
CCn1nc(C(F)(F)F)cc1N1CCc2[nH]c(-c3c(F)cccc3F)cc2C1 [Example 130, 2-(2,6-Difluoro-phenyl)-5-[2-ethyl-5-(trifluoromethyl)-2H-pyrazol-3-yl]-4,5,6,7-tetrahydro-1H-pyrrolo[3,2-c]pyridine]	< 0.5	> 70
Cc1ccncc1N1CCc2[nH]c(-c3c(F)cccc3F)cc2C1 [Example 10, 2-(2,6-Difluoro-phenyl)-5-(4-methyl-pyridin-3-yl)-4,5,6,7-tetrahydro-1H-pyrrolo[3,2-c]pyridine]	1 to 5	> 70
Cc1sc(-c2ccccc2)nc1N1CCc2[nH]c(-c3c(F)cccc3F)cc2C1 [Example 23, 4-[2-(2,6-Difluoro-phenyl)-4,5,6,7-tetrahydro-1H-pyrrolo[3,2-c]pyridin-5-yl]-5-methyl-2-phenyl-thaizole]	1 to 5	< 50
Cc1cc(S(C)(=O)=O)ncc1N1CCc2[nH]c(C3CCCC3)cc2C1 [Example 118, 2-Cyclopentyl-5-(4-methyl-6-methylsulfonyl-pyridin-3-yl)-4,5,6,7-tetrahydro-1H-pyrrolo[3,2-c]pyridine]	1 to 5	> 70
Cc1cc(Cl)ncc1N1CCc2[nH]c(-c3c(F)cccc3F)cc2C1 [Example 4, 5-(6-Chloro-4-methyl-pyridin-3-yl)-2-(2,6-difluoro-phenyl)-4,5,6,7-tetrahydro-1H-pyrrolo[3,2-c]pyridine]	< 0.5	> 70
Cc1cc([S+](C)[O-])ccc1N1CCc2[nH]c(-c3c(F)cccc3F)cc2C1 (stereo not shown) [Example 87, 2-(2,6-Difluoro-phenyl)-5-[2-methyl-4-(methylsulfinyl)-phenyl]-4,5,6,7-tetrahydro-1H-pyrrolo[3,2-c]pyridine]	1 to 5	> 70
Cc1cc(S(C)(=O)=O)ncc1N1CCc2[nH]c(-c3c(F)cccc3F)c(Br)c2C1 [Example 91, 3-Bromo-2-(2,6-difluoro-phenyl)-5-(4-methyl-6-methylsulfonyl-pyridin-3-yl)-4,5,6,7-tetrahydro-1H-pyrrolo[3,2-c]pyridine]	1 to 5	50 to 70
Cc1cc(S(=O)(=O)N(C)C2CC2)ccc1N1CCc2[nH]c(-c3c(F)cccc3F)cc2C1 [Example 120, N-Cyclopropyl-4-[2-(2,6-difluoro-phenyl)-4,5,6,7-tetrahydro-1H-pyrrolo[3,2-c]pyridin-5-yl]-N,3-dimethyl-benzenesulfonic acid amide]	1 to 5	< 50
Cc1cc(OC(F)(F)F)ncc1N1CCc2[nH]c(-c3c(F)cccc3F)cc2C1 [Example 111, 2-(2,6-Difluoro-phenyl)-5-[4-methyl-6-(trifluoromethyloxy)-pyridin-3-yl]-4,5,6,7-tetrahydro-1H-pyrrolo[3,2-c]pyridine]	< 0.5	< 50
Cc1cc(C(F)(F)F)ncc1N1CCc2[nH]c(C3CCCOC3)cc2C1 (stereo not shown) [Example 134, 5-[4-Methyl-6-(trifluoromethyl)-pyridin-3-yl]-2-tetrahydro-pyran-3-yl-4,5,6,7-tetrahydro-1H-pyrrolo[3,2-c]pyridine]	1 to 5	> 70
Cc1sc(-c2cccnc2)nc1N1CCc2[nH]c(-c3c(F)cccc3F)cc2C1 [Example 2, 4-[2-(2,6-Difluoro-phenyl)-4,5,6,7-tetrahydro-1H-pyrrolo[3,2-c]pyridin-5-yl]-5-methyl-2-pyridin-3-yl-thiazole]	< 0.5	> 70
Cc1cc(S(C)(=O)=O)ccc1N1CCc2[nH]c(-c3c(F)cccc3F)cc2C1 [Example 88, 2-(2,6-Difluoro-phenyl)-5-(2-methyl-4-methylsulfonyl-phenyl)-4,5,6,7-tetrahydro-1H-pyrrolo[3,2-c]pyridine]	< 0.5	50 to 70
Cc1cc(S(C)(=O)=O)c(F)cc1N1CCc2[nH]c(-c3c(F)cccc3F)cc2C1 [Example 101, 2-(2,6-Difluoro-phenyl)-5-(5-fluoro-2-methyl-4-methylsulfonyl-phenyl)-4,5,6,7-tetrahydro-1H-pyrrolo[3,2-c]pyridine]	< 0.5	> 70
COc1cc2c(cc1N1CCc3[nH]c(C4CCCCC4)cc3C1)CCS2(=O)=O [Example 103, 5-(2-Cyclohexyl-4,5,6,7-tetrahydro-1H-pyrrolo[3,2-c]pyridin-5-yl)-6-methoxy-2,3-dihydro-benzo[b]thiophene 1,1-dioxide]	< 0.5	< 50
COC(=O)c1ccc(N2CCc3[nH]c(-c4c(F)cccc4F)cc3C2)c(C)c1 [Example 13, 4-[2-(2,6-Difluoro-phenyl)-4,5,6,7-tetrahydro-1H-pyrrolo[3,2-c]pyridin-5-yl]-3-methyl-benzoic acid methyl ester]	0.5 to 1	< 50
Cc1cc(C#N)c(F)cc1N1CCc2[nH]c(-c3c(F)cccc3F)cc2C1 [Example 67, 4-[2-(2,6-Difluoro-phenyl)-4,5,6,7-tetrahydro-1H-pyrrolo[3,2-c]pyridin-5-yl]-2-fluoro-5-methyl-benzonitrile]	0.5 to 1	< 50
CNS(=O)(=O)c1ccc(N2CCc3[nH]c(-c4cnc(C)cc4C)cc3C2)c(C)c1 [Example 127, 4-[2-(4,6-Dimethyl-pyridin-3-yl)-4,5,6,7-tetrahydro-1H-pyrrolo[3,2-c]pyridin-5-yl]-N,3-dimethyl-benzenesulfonic acid amide]	1 to 5	> 70
Cc1cc(C)c(-c2cc3c([nH]2)CCN(c2cnc(S(C)(=O)=O)cc2C)C3)cn1 [Example 92, 2-(4,6-Dimethyl-pyridin-3-yl)-5-(4-methyl-6-methylsulfonyl-pyridin-3-yl)-4,5,6,7-tetrahydro-1H-pyrrolo[3,2-c]pyridine]	1 to 5	> 70
Fc1cccc(F)c1-c1cc2c([nH]1)CCN(c1cnc(C(F)(F)F)cc1C1CC1)C2 [Example 113, 5-[4-Cyclopropyl-6-(trifluoromethyl)-pyridin-3-yl]-2-(2,6-difluoro-phenyl)-4,5,6,7-tetrahydro-1H-pyrrolo[3,2-c]pyridine]	< 0.5	< 50
Cc1cc(C#N)cnc1N1CCc2[nH]c(-c3c(F)cccc3F)cc2C1 [Example 68, 6-[2-(2,6-Difluoro-phenyl)-4,5,6,7-tetrahydro-1H-pyrrolo[3,2-c]pyridin-5-yl]-5-methyl-nicotinonitrile]	< 0.5	> 70
Cc1cc(S(=O)(=O)N2CCOCC2)ccc1N1CCc2[nH]c(-c3c(F)cccc3F)cc2C1 [Example 117, 4-[[4-[2-(2,6-Difluoro-phenyl)-4,5,6,7-tetrahydro-1H-pyrrolo[3,2-c]pyridin-5-yl]-3-methyl-phenyl]sulfonyl]-morpholine]	0.5 to 1	> 70
